Experimental data reported in patent publication US9932340B2, “Substituted indoles” (AbbVie Inc., priority 2014, dated 2018).
pIC50: −log10 of the molar value.

Biological target: SUV420H1 enzyme (Homo sapiens, UniProt Q4FZB7)
Test: TR-FRET SAH SUV420H1 enzyme inhibition assay
Format: biochemical
Settings: Histone Peptide H4(8-30)me1 and SAM, overnight at room temp, TR-FRET detection of SAH, read-out: TR-FRET SAH_SUV420H1 IC50
Summary of the method: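 SUV420H1 (90 nM) preincubated 30 min with compound (3-fold dilutions, 50 to 0.00075 μM), then H4(8-30)me1 peptide 5 nM and SAM 4 nM added, overnight at room temp. SAH product detected by TR-FRET with Tb anti-SAH antibody and Oregon Green-SAH in RIPA buffer, 4 h; IC50 from Hill fit, asymptotes fixed 0-100%.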

Chain of SUV420H1 enzyme (Q4FZB7 whole entry): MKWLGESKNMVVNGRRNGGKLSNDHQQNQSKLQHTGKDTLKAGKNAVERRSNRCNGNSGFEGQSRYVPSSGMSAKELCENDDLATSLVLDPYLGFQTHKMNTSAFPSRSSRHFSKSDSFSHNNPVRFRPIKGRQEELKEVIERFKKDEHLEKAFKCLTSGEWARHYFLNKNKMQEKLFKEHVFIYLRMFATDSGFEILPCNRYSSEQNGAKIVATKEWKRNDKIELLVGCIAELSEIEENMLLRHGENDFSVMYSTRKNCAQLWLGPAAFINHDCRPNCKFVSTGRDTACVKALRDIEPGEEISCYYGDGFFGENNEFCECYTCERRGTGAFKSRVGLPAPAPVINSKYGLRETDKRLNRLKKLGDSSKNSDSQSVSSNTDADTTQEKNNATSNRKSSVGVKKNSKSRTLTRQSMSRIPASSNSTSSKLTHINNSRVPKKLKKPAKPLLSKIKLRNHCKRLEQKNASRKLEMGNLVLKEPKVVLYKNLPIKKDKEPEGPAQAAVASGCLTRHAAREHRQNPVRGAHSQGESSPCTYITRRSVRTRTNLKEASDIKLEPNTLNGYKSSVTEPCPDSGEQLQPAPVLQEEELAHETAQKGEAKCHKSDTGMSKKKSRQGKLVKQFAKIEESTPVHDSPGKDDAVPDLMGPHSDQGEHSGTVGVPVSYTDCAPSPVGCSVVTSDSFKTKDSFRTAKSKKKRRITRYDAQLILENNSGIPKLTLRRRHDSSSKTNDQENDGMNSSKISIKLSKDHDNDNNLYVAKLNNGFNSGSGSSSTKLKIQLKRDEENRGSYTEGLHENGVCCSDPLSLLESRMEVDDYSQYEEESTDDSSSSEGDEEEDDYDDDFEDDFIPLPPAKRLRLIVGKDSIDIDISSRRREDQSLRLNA

Compound	pIC50
NCc1cc2cc(-c3ccc(S(N)(=O)=O)cc3)cc(Cn3cnc4c(N)ncnc43)c2[nH]1 [Example 29, 4-{2-(aminomethyl)-7-[(6-amino-9H-purin-9-yl)methyl]-1H-indol-5-yl}benzenesulfonamide]	6.60
CS(=O)(=O)Nc1cccc(-c2cc(Cn3cnc4c(N)ncnc43)c3[nH]c(CN)cc3c2)c1 [Example 42, N-(3-{2-(aminomethyl)-7-[(6-amino-9H-purin-9-yl)methyl]-1H-indol-5-yl}phenyl)methanesulfonamide]	6.35
C=Cc1ccc2cc(CN)[nH]c2c1Cn1cnc2c(N)ncnc21 [Example 59, 9-{[2-(aminomethyl)-6-ethenyl-1H-indol-7-yl]methyl}-9H-purin-6-amine]	5.12
CS(=O)(=O)Nc1ccc(-c2ccc(Cn3cnc4c(N)ncnc43)c3[nH]c(CN)cc23)cc1 [Example 85, N-(4-{2-(aminomethyl)-7-[(6-amino-9H-purin-9-yl)methyl]-1H-indol-4-yl}phenyl)methanesulfonamide]	6.22
CN(C)CCNC(=O)c1ccc(-c2cc(Cn3cnc4c(N)ncnc43)c3[nH]c(CN)cc3c2)cc1 [Example 49, 4-{2-(aminomethyl)-7-[(6-amino-9H-purin-9-yl)methyl]-1H-indol-5-yl}-N-[2-(dimethylamino)ethyl]benzamide]	6.71
Nc1ncnc2c1ncn2Cc1cc(Cl)cc2cc(CN3CCS(=O)(=O)CC3)[nH]c12 [Example 125, 9-({5-chloro-2-[(1,1-dioxidothiomorpholin-4-yl)methyl]-1H-indol-7-yl}methyl)-9H-purin-6-amine]	5.34
Cc1noc(C)c1C(=O)NCc1cc2cc(-c3ccc(F)cc3)cc(Cn3cnc4c(N)ncnc43)c2[nH]1 [Example 165, N-({7-[(6-amino-9H-purin-9-yl)methyl]-5-(4-fluorophenyl)-1H-indol-2-yl}methyl)-3,5-dimethyl-1,2-oxazole-4-carboxamide]	6.63
Cc1nc(C)c(C(=O)NCc2cc3cc(Cl)cc(Cn4cnc5c(N)ncnc54)c3[nH]2)s1 [Example 161, N-({7-[(6-amino-9H-purin-9-yl)methyl]-5-chloro-1H-indol-2-yl}methyl)-2,4-dimethyl-1,3-thiazole-5-carboxamide]	6.07
CC(=O)N1CCC(c2cc(Cn3cnc4c(N)ncnc43)c3[nH]c(CN)cc3c2)CC1 [Example 17, 1-(4-{2-(aminomethyl)-7-[(6-amino-9H-purin-9-yl)methyl]-1H-indol-5-yl}piperidin-1-yl)ethanone]	6.20
Nc1ncnc2c1ncn2Cc1cc(Cl)cc2cc(CNC(=O)CC3CCCC3)[nH]c12 [Example 121, N-({7-[(6-amino-9H-purin-9-yl)methyl]-5-chloro-1H-indol-2-yl}methyl)-2-cyclopentylacetamide]	5.59
Cc1noc(C)c1C(=O)NCc1cc2cc(-c3cccc(C(=O)N4CCOCC4)c3)cc(Cn3cnc4c(N)ncnc43)c2[nH]1 [Example 180, N-({7-[(6-amino-9H-purin-9-yl)methyl]-5-[3-(morpholin-4-ylcarbonyl)phenyl]-1H-indol-2-yl}methyl)-3,5-dimethyl-1,2-oxazole-4-carboxamide]	6.89
CCC(N)c1cc2cc(Cl)cc(Cn3cnc4c(N)ncnc43)c2[nH]1 (stereo not drawn) [Example 91, 9-{[2-(1-aminopropyl)-5-chloro-1H-indol-7-yl]methyl}-9H-purin-6-amine]	5.57
CC1CC1C(=O)NCc1cc2cc(Cl)cc(Cn3cnc4c(N)ncnc43)c2[nH]1 (stereo not drawn) [Example 109, N-({7-[(6-amino-9H-purin-9-yl)methyl]-5-chloro-1H-indol-2-yl}methyl)-2-methylcyclopropanecarboxamide]	4.97
N#Cc1ccc(-c2cc(Cn3cnc4c(N)ncnc43)c3[nH]c(CN)cc3c2)cc1 [Example 38, 4-{2-(aminomethyl)-7-[(6-amino-9H-purin-9-yl)methyl]-1H-indol-5-yl}benzonitrile]	6.09
NCc1cc2c(-c3ccc(F)cc3)ccc(Cn3cnc4c(N)ncnc43)c2[nH]1 [Example 73, 9-{[2-(aminomethyl)-4-(4-fluorophenyl)-1H-indol-7-yl]methyl}-9H-purin-6-amine]	6.14
CC(=O)NCc1cc2cc(Cl)cc(Cn3cnc4c(N)ncnc43)c2[nH]1 [Example 92, N-({7-[(6-amino-9H-purin-9-yl)methyl]-5-chloro-1H-indol-2-yl}methyl)acetamide]	< 4.30
Cc1nn(C)cc1C(=O)NCc1cc2cc(Cl)cc(Cn3cnc4c(N)ncnc43)c2[nH]1 [Example 184, N-({7-[(6-amino-9H-purin-9-yl)methyl]-5-chloro-1H-indol-2-yl}methyl)-1,3-dimethyl-1H-pyrazole-4-carboxamide]	6.08

The remaining lines, values ahead:

pIC50	Compound
5.37	Cc1nc2cc(C(=O)NCc3cc4cc(Cl)cc(Cn5cnc6c(N)ncnc65)c4[nH]3)ccc2[nH]1 [Example 363, N-({7-[(6-amino-9H-purin-9-yl)methyl]-5-chloro-1H-indol-2-yl}methyl)-2-methyl-1H-benzimidazole-5-carboxamide]
6.42	N#Cc1ccc(C(=O)NCc2cc3cc(Cl)cc(Cn4cnc5c(N)ncnc54)c3[nH]2)cc1 [Example 272, N-({7-[(6-amino-9H-purin-9-yl)methyl]-5-chloro-1H-indol-2-yl}methyl)-4-cyanobenzamide]
7.03	Cc1nnccc1C(=O)NCc1cc2cc(Cl)cc(Cn3cnc4c(N)ncnc43)c2[nH]1 [Example 199, N-({7-[(6-amino-9H-purin-9-yl)methyl]-5-chloro-1H-indol-2-yl}methyl)-3-methylpyridazine-4-carboxamide]
5.22	COc1ccccc1CC(=O)NCc1cc2cc(Cl)cc(Cn3cnc4c(N)ncnc43)c2[nH]1 [Example 298, N-({7-[(6-amino-9H-purin-9-yl)methyl]-5-chloro-1H-indol-2-yl}methyl)-2-(2-methoxyphenyl)acetamide]
7.34	CC(=O)N1CCC=C(c2cc(Cn3cnc4c(N)ncnc43)c3[nH]c(CNC(=O)c4cc(C)nnc4C)cc3c2)C1 [Example 238]
5.73	CC(C)c1oncc1C(=O)NCc1cc2cc(Cl)cc(Cn3cnc4c(N)ncnc43)c2[nH]1 [Example 187, N-({7-[(6-amino-9H-purin-9-yl)methyl]-5-chloro-1H-indol-2-yl}methyl)-5-(propan-2-yl)-1,2-oxazole-4-carboxamide]
5.63	Nc1ncnc2c1ncn2Cc1cc(Cl)cc2cc(CNCc3cccc(Cl)c3F)[nH]c12 [Example 218, 9-[(5-chloro-2-{[(3-chloro-2-fluorobenzyl)amino]methyl}-1H-indol-7-yl)methyl]-9H-purin-6-amine]
5.67	Nc1ncnc2c1ncn2Cc1cc(Cl)cc2cc(CNC(=O)Cc3cccc(Cl)c3)[nH]c12 [Example 252, N-({7-[(6-amino-9H-purin-9-yl)methyl]-5-chloro-1H-indol-2-yl}methyl)-2-(3-chlorophenyl)acetamide]
5.71	Cc1cccc(F)c1CNCc1cc2cc(Cl)cc(Cn3cnc4c(N)ncnc43)c2[nH]1 [Example 244, 9-[(5-chloro-2-{[(2-fluoro-6-methylbenzyl)amino]methyl}-1H-indol-7-yl)methyl]-9H-purin-6-amine]
5.58	Nc1ncnc2c1ncn2Cc1cc(Cl)cc2cc(CNC(=O)c3ccc4cc[nH]c4c3)[nH]c12 [Example 356, N-({7-[(6-amino-9H-purin-9-yl)methyl]-5-chloro-1H-indol-2-yl}methyl)-1H-indole-6-carboxamide]
5.74	COc1cccc(C)c1C(=O)NCc1cc2cc(Cl)cc(Cn3cnc4c(N)ncnc43)c2[nH]1 [Example 299, N-({7-[(6-amino-9H-purin-9-yl)methyl]-5-chloro-1H-indol-2-yl}methyl)-2-methoxy-6-methylbenzamide]
5.45	COc1ccccc1C(=O)NCc1cc2cc(Cl)cc(Cn3cnc4c(N)ncnc43)c2[nH]1 [Example 260, N-({7-[(6-amino-9H-purin-9-yl)methyl]-5-chloro-1H-indol-2-yl}methyl)-2-methoxybenzamide]
6.41	Cc1noc2ncc(C(=O)NCc3cc4cc(Cl)cc(Cn5cnc6c(N)ncnc65)c4[nH]3)cc12 [Example 351, N-({7-[(6-amino-9H-purin-9-yl)methyl]-5-chloro-1H-indol-2-yl}methyl)-3-methyl[1,2]oxazolo[5,4-b]pyridine-5-carboxamide]
4.78	Nc1ncnc2c1ncn2Cc1cc(Cl)cc2cc(CNC(=O)Cc3ccccn3)[nH]c12 [Example 230, N-({7-[(6-amino-9H-purin-9-yl)methyl]-5-chloro-1H-indol-2-yl}methyl)-2-(pyridin-2-yl)acetamide]
7.21	CC(C)(C)OC(=O)N1CC=C(c2cc(Cn3cnc4c(N)ncnc43)c3[nH]c(CNC(=O)c4ccc(C#N)cc4F)cc3c2)CC1 [Example 289, tert-butyl 4-(7-[(6-amino-9H-purin-9-yl)methyl]-2-{[(4-cyano-2-fluorobenzoyl)amino]methyl}-1H-indol-5-yl)-3,6-dihydropyridine-1(2H)-carboxylate]
5.26	Cc1cccc(Cl)c1CNCc1cc2cc(Cl)cc(Cn3cnc4c(N)ncnc43)c2[nH]1 [Example 243]
5.73	Cn1ccc2ccc(C(=O)NCc3cc4cc(Cl)cc(Cn5cnc6c(N)ncnc65)c4[nH]3)cc21 [Example 365]
4.69	Cc1cccc(CC(=O)NCc2cc3cc(Cl)cc(Cn4cnc5c(N)ncnc54)c3[nH]2)c1 [Example 293, N-({7-[(6-amino-9H-purin-9-yl)methyl]-5-chloro-1H-indol-2-yl}methyl)-2-(3-methylphenyl)acetamide]
4.89	COc1cccc(CCC(=O)NCc2cc3cc(Cl)cc(Cn4cnc5c(N)ncnc54)c3[nH]2)c1 [Example 316, N-({7-[(6-amino-9H-purin-9-yl)methyl]-5-chloro-1H-indol-2-yl}methyl)-3-(3-methoxyphenyl)propanamide]
